Values after ≈ are worked out from the molar mass of the structure shown.
Legend:
[1] = test system: E. coli (ATCC 10798); test: MIC and MBC measurement with E. coli (ATCC 10798); format: cell-based, Escherichia coli; conditions: Table 1, E. coli (ATCC 10798)
Summary of the method: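 Cholic acid derivatives, dissolved as HCl salts in sterile water, were tested in TSB tubes over a concentration series and incubated without agitation for 24 hours at 37° C. Absorption at 760 nm marked growth, while surviving CFU in turbidity-free tubes, plated on TSA overnight, were compared with inoculum counts.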

[2] = test system: Gram-negative bacteria; test: Sensitization to novobiocin, ester and amide side chain compounds (Table 14); format: cell-based; conditions: strain not given
Procedure: (§1) Aliquots of 1 mL of the suspension were added to test tubes containing 1 mL TSB and incrementally varied concentrations of cholic acid derivatives and/or erythromycin or novobiocin. In the sensitization experiments, erythromycin or novobiocin were added 15 minutes later than the cholic acid derivatives. The samples were subjected to stationary incubation at 37° C. for 24 hours. Sample turbidity was determined by measuring absorption at 760 nm (HP 8453 UV-Visible Chemstation, Hewlett Packard). Additionally, an alliquot from each of the samples showing no measurable turbidity was subcultured on TSA plates (alliquots were diluted to provide fewer than 300 CFU). Colonies that grew on the subculture after overnight incubation were counted and the number of CFU/mL in the samples were calculated. The calculated values were compared to the number of CFU/mL in the original inoculum.
(§2) Ability to permeabilize outer membrane: Compounds 11, 106, and 108-114 (FIG. 1) were tested for antibiotic activity. They were also tested for the ability to permeabilize the outer membrane of Gram-negative bacteria, causing sensitization to hydrophobic antibiotics that cannot cross the outer membrane. The permeabilization of the outer membrane was measured using erythromycin and novobiocin.
(§3) Ester and amide side chains: Additional compounds, for example, compounds with amide and ester side chains, were tested.

[3] = test system: Gram-negative bacteria; test: MIC of ester and amide side chain compounds (Table 14); format: cell-based; conditions: strain not given
Procedure: as §1, §3

[4] = test system: E. coli (ATCC 10798); test: Sensitization to erythromycin (concentration lowering the MIC of erythromycin), E. coli (ATCC 10798); format: cell-based, Escherichia coli; conditions: Table 2, E. coli (ATCC 10798)
[5] = test system: Gram-negative bacteria; test: Sensitization to erythromycin, ester and amide side chain compounds (Table 14); format: cell-based; conditions: Table 14; strain not given
Procedure: as §1, §2, §3

[6] = test system: Salmonella typhimurium ATCC 14028; test: Growth inhibition and FIC with rifampicin, Salmonella typhimurium ATCC 14028; format: cell-based; conditions: Table 13; Salmonella typhimurium ATCC 14028^b; rifampicin (by order) at 0.5, 1.0 or 3.0 μg/mL
Procedure: (§4) Alternatively, “fractional inhibitory concentration (FIC)” is also useful for determination of synergy between the compounds of the invention, or the compounds in combination with known antibiotics. FICs can be performed by checkerboard titrations of compounds in one dimension of a microtiter plate, and of antibiotics in the other dimension, for example. The FIC is calculated by looking at the impact of one antibiotic on the MIC of the other and vice versa. […] Preferably, an FIC of less than 0.5 is obtained for synergism. As used herein, FIC can be determined as follows:
as §1
(§5) To measure permeabilization, the FIC values for compounds 1, 2, 5, 106, 10, 112, 133, and 134 with erythromycin, novobiocin, and rifampicin were determined. Concentrations of 0.5, 1.0 or 3.0 μg/mL of these antibiotics were used, and the concentrations of the cholic acid derivatives required to inhibit bacterial growth of Gram-negative strains were determined.

[7] = test system: Staphylococcus aureus ATCC 25923; test: MIC and MBC measurement with Staphylococcus aureus ATCC 25923; format: cell-based; conditions: ATCC25923; Table 10; Staphylococcus aureus ATCC 25923; read-out: MIC
Text: (§6) General: Microorganisms. Reference strains were purchased from the American Type Culture Collection (Rockville, Md.) or Bactrol disks from Difeo Laboratories (Detroit, Mich.). The following specific ATCC strains were used: 10798 Escherichia coli, 25922 Escherichia coli, 13883 Klebsiella pneumoniae, 27853 Pseudomonas aeruginosa, 14028 Salmonella typhimurium, 29212 Enterococcus faecalis, 25923 Staphylococcus aureus, 19615 Streptococcus pyogenes, and 90028 Candida albicans. Bacterial strains were maintained on Mueller-Hinton agar plates, and Candida albicans was maintained on Sabouraud Dextrose agar plates.
(§7) Tryptic soy broth (TSB) was made by dissolving 27.5 grams of tryptic soy broth without dextrose (DIFCO Laboratories) in 1 liter of deionized water and sterilizing at 121° C. for 15 minutes. Solid agar (TSA) plates were made by dissolving 6.4 grams of tryptic soy broth and 12 grams of agar (purified grade, Fischer Scientific) in 800 mL of deionized water and sterilizing at 121° C. for 20 minutes. Aliquots (20 mL) of the homogeneous solution were then poured in sterile plastic petri dishes (100×15 mm, Fisher Scientific). Solutions of compounds were made by dissolving the HCl salt of the respective compound into an appropriate amount of deionized and sterilized water followed by microfiltration.
as §1, with “inoculum. […]” for “inoculum.”

[8] = test system: Klebsiella pneumonia ATCC 13883; test: MIC and MBC measurement with Klebsiella pneumoniae ATCC 13883; format: cell-based; conditions: Klebsiella pneumoniae, ATCC13883, Table 10, read-out: MBC
Text: as §6, §7, §1

[9] = test system: E. coli (ATCC 25922); test: Sensitization to erythromycin, E. coli (ATCC 25922); format: cell-based, Escherichia coli; conditions: Table 11; Escherichia coli ATCC 25922; erythromycin (by order) at 0.5, 1.0 or 3.0 μg/mL
Procedure: FICs can be performed by checkerboard titrations of compounds in one dimension of a microtiter plate, and of antibiotics in the other dimension, for example. The FIC is calculated by looking at the impact of one antibiotic on the MIC of the other and vice versa. […] Preferably, an FIC of less than 0.5 is obtained for synergism. As used herein, FIC can be determined as follows:
as §1
Concentrations of 0.5, 1.0 or 3.0 μg/mL of these antibiotics were used, and the concentrations of the cholic acid derivatives required to inhibit bacterial growth of Gram-negative strains were determined.
(§8) Minimum inhibition concentrations (MIC) and minimum hemolytic concentrations (MHC) were measured as described in Li et al., Antimicrob. Agents. Chemother., 1999, 43, 1347.

[10] = test system: Pseudomonas aeruginosa (ATCC 27853); test: Sensitization to novobiocin, Pseudomonas aeruginosa (ATCC 27853); format: cell-based; conditions: Table 12; Pseudomonas aeruginosa ATCC 27853; novobiocin (by order) at 0.5, 1.0 or 3.0 μg/mL
Procedure: as §4
as §1, with “inoculum. […]” for “inoculum.”
as §5

[11] = test system: Salmonella typhimurium ATCC 14028; test: Growth inhibition and FIC with novobiocin, Salmonella typhimurium ATCC 14028; format: cell-based; conditions: Table 12, novobiocin (by order) at 0.5, 1.0 or 3.0 μg/mL
Procedure: as §4, §1, §5

[12] = remark: listed apart in the source
Procedure: as §8

[13] = test system: Pseudomonas aeruginosa ATCC 27853; test: Growth inhibition and FIC with rifampicin, Pseudomonas aeruginosa ATCC 27853; format: cell-based; conditions: Table 13; Pseudomonas aeruginosa ATCC 27853^b; rifampicin (by order) at 0.5, 1.0 or 3.0 μg/mL
Procedure: as §4, §1, §5

[14] = test system: Klebsiella pneumonia ATCC 13883; test: Growth inhibition and FIC with novobiocin, Klebsiella pneumoniae ATCC 13883; format: cell-based; conditions: Table 12, novobiocin (by order) at 0.5, 1.0 or 3.0 μg/mL
Procedure: as §4, §1, §5

[15] = test system: Escherichia coli ATCC 25922; test: Growth inhibition and FIC with rifampicin, Escherichia coli ATCC 25922; format: cell-based; conditions: Table 13, rifampicin (by order) at 0.5, 1.0 or 3.0 μg/mL
Procedure: as §4, §1, §5

[16] = test system: Pseudomonas aeruginosa (ATCC 27853); test: Sensitization to erythromycin, Pseudomonas aeruginosa (ATCC 27853); format: cell-based
Summary of the method: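 Sensitization measured by the cholic acid derivative concentration inhibiting growth when combined with 0.5, 1.0 or 3.0 μg/mL erythromycin or novobiocin, antibiotic added 15 min after derivative. Incubation 24 h at 37 °C without shaking in TSB; growth by absorbance at 760 nm with CFU plating of non-turbid tubes; synergy expressed as FIC.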

[17] = test system: Klebsiella pneumonia ATCC 13883; test: Growth inhibition and FIC with rifampicin, Klebsiella pneumoniae ATCC 13883; format: cell-based
Procedure: as §4, §1, §5

[18] = test system: E. coli (ATCC 25922); test: MIC and MBC measurement with E. coli (ATCC 25922); format: cell-based, Escherichia coli; conditions: ATCC25922; Table 10; Escherichia coli ATCC 25922; read-out: MBC
Summary of the method: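 Growth inhibition read as absorbance at 760 nm after 24 h stationary culture at 37 °C in tryptic soy broth containing varied compound levels. Turbidity-free samples were plated on TSA overnight and CFU/mL compared with the starting inoculum for bactericidal endpoint; antibiotic co-additions followed compound by 15 min.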

[19] = test system: Salmonella typhimurium ATCC 14028; test: MIC and MBC measurement with Salmonella typhimurium ATCC 14028; format: cell-based; conditions: Salmonella enterica, Table 10, read-out: MBC
Text: as §6, §7, §1

Structure (SMILES): C[C@H](CCCN(C)Cc1ccccc1)[C@H]1CC[C@H]2[C@@H]3[C@H](OC(=O)CN)C[C@@H]4C[C@H](OC(=O)CN)CC[C@]4(C)[C@H]3C[C@H](OC(=O)CN)[C@]12C.Cl.Cl.Cl.Cl [Compound 6]
- MIC [1]: 65 µg/mL
- b: concentration of cholic acid derivatives required to lower MIC of novobiocin to 1 μg/ML [2]: 40 µg/mL
- MIC [3]: 85 µg/mL
- MIC: concentration required to lower the MIC of erythromycin from 70 μg/mL to 1 μg/mL [4]: 22 µg/mL
- a: concentration of cholic acid derivatives required to lower MIC of erythromycin to 1 μg/ML [5]: 15 µg/mL

Structure (SMILES): C[C@H](CCCO)C1CC[C@H]2[C@@H]3[C@H](N)C[C@@H]4C[C@H](N)CC[C@]4(C)[C@H]3C[C@H](N)[C@]12C (stereo partly drawn)
- melting point: 200 to 202 °C

Structure (SMILES): C[C@H](CCCO)[C@H]1CC[C@H]2[C@@H]3[C@H](OCCCN)C[C@@H]4C[C@H](OCCCN)CC[C@]4(C)[C@H]3C[C@H](OCCCN)[C@]12C [Compound 10]
- MBC ([1]; Escherichia coli, ATCC10798, read-out: MBC): 60 µg/mL (≈ 106 µM)
- concentration required to inhibit bacterial growth with antibiotic [6]: 0.55 µg/mL
- MIC [7]: 2 µg/mL (≈ 3.53 µM)
- MBC [8]: 50 µg/mL (≈ 88.4 µM)
- concentration required to inhibit bacterial growth with antibiotic [9]: 1.5 µg/mL
- MIC: concentration required to lower the MIC of erythromycin from 70 μg/mL to 1 μg/mL [4]: 2 µg/mL
- MBC (with erythromycin) ([4]; erythromycin sensitization): 50 µg/mL
- concentration required to inhibit bacterial growth with antibiotic [10]: 5.3 µg/mL
- concentration required to inhibit bacterial growth with antibiotic [11]: 1.8 µg/mL
- MHC [12]: 100 µg/mL
- concentration required to inhibit bacterial growth with antibiotic [13]: 0.84 µg/mL
- concentration required to inhibit bacterial growth with antibiotic [14]: 0.73 µg/mL
- concentration required to inhibit bacterial growth with antibiotic [15]: 0.70 µg/mL
- MIC: concentration required to lower the MIC of erythromycin from 240 μg/mL to 5 μg/mL ([16]; Table 7, P. aureginosa (ATCC 27853)): 7 µg/mL
- concentration required to inhibit bacterial growth with antibiotic ([16]; Table 11, Pseudomonas aeruginosa ATCC 27853, erythromycin (by order) at 0.5, 1.0 or 3.0 μg/mL): 2.1 µg/mL
- FIC ([17]; Table 13, rifampicin (by order)): 0.030
- concentration required to inhibit bacterial growth with antibiotic ([17]; Table 13, rifampicin (by order) at 0.5, 1.0 or 3.0 μg/mL): 0.16 µg/mL
- MBC [18]: 40 µg/mL (≈ 70.7 µM)
- MBC [19]: > 17 µg/mL

Structure (SMILES): C[C@H](CCCN(C)Cc1ccccc1)[C@H]1CC[C@H]2[C@@H]3[C@H](OC(=O)CCN)C[C@@H]4C[C@H](OC(=O)CCN)CC[C@]4(C)[C@H]3C[C@H](OC(=O)CCN)[C@]12C.Cl.Cl.Cl.Cl [Compound 7]
- MIC [1]: 28 µg/mL
- b: concentration of cholic acid derivatives required to lower MIC of novobiocin to 1 μg/ML [2]: 13 µg/mL
- MIC [3]: 70 µg/mL
- MIC: concentration required to lower the MIC of erythromycin from 70 μg/mL to 1 μg/mL [4]: 2.5 µg/mL
- a: concentration of cholic acid derivatives required to lower MIC of erythromycin to 1 μg/ML [5]: 3 µg/mL

Structure (SMILES): C[C@H](CCCN(C)Cc1ccccc1)[C@H]1CC[C@H]2[C@@H]3[C@H](NC(=O)CCN)C[C@@H]4C[C@H](NC(=O)CCN)CC[C@]4(C)[C@H]3C[C@H](NC(=O)CCN)[C@]12C [Compound 210b]
- b: concentration of cholic acid derivatives required to lower MIC of novobiocin to 1 μg/ML [2]: 40 µg/mL
- MIC [3]: 100 µg/mL
- a: concentration of cholic acid derivatives required to lower MIC of erythromycin to 1 μg/ML [5]: 15 µg/mL

Structure (SMILES): C[C@H](CCCN(C)Cc1ccccc1)[C@H]1CC[C@H]2[C@@H]3[C@H](NC(=O)CN)C[C@@H]4C[C@H](NC(=O)CN)CC[C@]4(C)[C@H]3C[C@H](NC(=O)CN)[C@]12C [Compound 210a]
- b: concentration of cholic acid derivatives required to lower MIC of novobiocin to 1 μg/ML [2]: 18 µg/mL
- MIC [3]: 80 µg/mL
- a: concentration of cholic acid derivatives required to lower MIC of erythromycin to 1 μg/ML [5]: 6 µg/mL

Structure (SMILES): C[C@H](CCCO)[C@H]1CC[C@H]2[C@@H]3[C@H](OC(=O)CCN)C[C@@H]4C[C@H](OC(=O)CCN)CC[C@]4(C)[C@H]3C[C@H](OC(=O)CCN)[C@]12C [Compound 203b]
- b: concentration of cholic acid derivatives required to lower MIC of novobiocin to 1 μg/ML [2]: 10 µg/mL
- MIC [3]: 80 µg/mL
- a: concentration of cholic acid derivatives required to lower MIC of erythromycin to 1 μg/ML [5]: 4 µg/mL
